Reference: publication PMC9607081 (Membranes, 2022)
Changes are numbered by the printed parent chain. Like-named read-outs stand apart in the source and are kept apart here.

Experiments:
Format in all cases: cell-based
[1] = target: T1, human GlyR α1 subunit WT (Homo sapiens, UniProt P23415); test: Two-electrode voltage clamp of Xenopus oocytes expressing WT GlyR; conditions: for nH (Hill coefficient): Table 1, n = 5; for EC50: Table 1, −60 mV; for % ImaxTau /ImaxGly: Tau maximal current relative to Gly maximal current
T1 construct: expressed in transfected cells; host or cells: Xenopus laevis oocytes injected with receptor mRNA
T1 sequence (P23415 29-457): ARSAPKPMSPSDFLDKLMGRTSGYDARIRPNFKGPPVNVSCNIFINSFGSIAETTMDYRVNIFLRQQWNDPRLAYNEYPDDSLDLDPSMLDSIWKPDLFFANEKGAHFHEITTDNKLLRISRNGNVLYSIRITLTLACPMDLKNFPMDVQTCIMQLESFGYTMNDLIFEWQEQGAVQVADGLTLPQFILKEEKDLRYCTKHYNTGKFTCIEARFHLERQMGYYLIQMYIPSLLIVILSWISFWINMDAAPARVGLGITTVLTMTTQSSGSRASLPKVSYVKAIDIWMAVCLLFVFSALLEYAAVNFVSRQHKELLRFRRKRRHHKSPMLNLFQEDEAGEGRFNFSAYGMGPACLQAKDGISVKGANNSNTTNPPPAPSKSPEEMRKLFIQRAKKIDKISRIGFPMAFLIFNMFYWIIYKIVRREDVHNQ
Experimental: (§1) Injection volumes were 50–100 nL per cell.
(§2) All experiments were performed at 22–25 °C. […] The holding potential was −60 mV unless otherwise specified.

[2] = target: T2, human GlyR α1 subunit P96A (Homo sapiens, UniProt P23415, P124A); test: Two-electrode voltage clamp of Xenopus oocytes expressing P96A GlyR; conditions: for nH (Hill coefficient): Table 1, n = 5; for EC50: Table 1, −60 mV
T2 construct: expressed in transfected cells; host or cells: Xenopus laevis oocytes injected with receptor mRNA
T2 sequence (P23415 29-457 P124A): T1 sequence (P23415 29-457) with P96A
Experimental: as §1, §2

[3] = target: T3, human GlyR α1 subunit P146A (Homo sapiens, UniProt P23415, P174A); test: Two-electrode voltage clamp of Xenopus oocytes expressing P146A GlyR; conditions: for nH (Hill coefficient): Table 1, n = 5; for EC50: Table 1, −60 mV
T3 construct: expressed in transfected cells; host or cells: Xenopus laevis oocytes injected with receptor mRNA
T3 sequence (P23415 29-457 P174A): T1 sequence (P23415 29-457) with P146A
Experimental: as §1, §2

[4] = target: T4, human GlyR α1 subunit P230A (Homo sapiens, UniProt P23415, P258A); test: Two-electrode voltage clamp of Xenopus oocytes expressing P230A GlyR; conditions: for nH (Hill coefficient): Table 1, n = 5; for EC50: Table 1, −60 mV
T4 construct: expressed in transfected cells; host or cells: Xenopus laevis oocytes injected with receptor mRNA
T4 sequence (P23415 29-457 P258A): T1 sequence (P23415 29-457) with P230A
Experimental: as §1, §2

[5] = target: T5, human GlyR α1 subunit P146 (CysL) substituted with Pro (Homo sapiens, UniProt P23415); test: TEVC, oocytes, nonsense suppression, P146 Pro recovery; conditions: for EC50: Table 3, nonsense suppression
T5 construct: expressed in transfected cells; host or cells: Xenopus laevis oocytes injected with receptor mRNA
T5 sequence (P23415 29-457): T1 sequence (P23415 29-457)
Experimental: Injection volumes were 50–100 nL per cell. […] The holding potential was −60 mV unless otherwise specified.

[6] = n = 5, read-out: pEC50 (converted)

NCCS(=O)(=O)O [Tau, taurine]
nH (Hill coefficient) [1]: 1.7 ± 0.3
EC50 ([1]; n = 5, read-out: EC50): 583 µM
EC50 [1, 6]: 582 µM
% ImaxTau /ImaxGly ([1]; n = 5): 50 ± 4%
% ImaxTau /ImaxGly ([1]; n = 5, listed as Taurine): 50%
nH (Hill coefficient) [2]: 1.9 ± 0.2
EC50 ([2]; n = 5, read-out: EC50): 2440 µM
EC50 [2, 6]: 2440 µM
% ImaxTau /ImaxGly ([2]; n = 5): 36 ± 2 %
nH (Hill coefficient) [3]: 1.5 ± 0.3
EC50 ([3]; n = 5, read-out: EC50): 1410 µM
EC50 [3, 6]: 1410 µM
% ImaxTau /ImaxGly ([3]; n = 5): 39 ± 3 %
nH (Hill coefficient) [4]: 2.2 ± 0.4
EC50 ([4]; n = 5, read-out: EC50): 1190 µM
EC50 [4, 6]: 1190 µM
% ImaxTau /ImaxGly ([4]; n = 5): 20 ± 1 %
% ImaxTau /ImaxGly ([5]; Table 3, n = 4): 43 ± 5%
nH ([5]; Table 3, n = 4): 1.5 ± 0.3
EC50 ([5]; n = 4, read-out: EC50): 1030 µM
EC50 ([5]; n = 4, read-out: pEC50 (converted)): 1040 µM

NCC(=O)O [Gly, glycine]
nH (Hill coefficient) [1]: 2.3 ± 0.5
nH (Hill coefficient) [2]: 2.2 ± 0.3
nH (Hill coefficient) [3]: 2.4 ± 0.7
nH (Hill coefficient) [4]: 2.2 ± 0.4
nH ([5]; Table 2, n = 6): 2.5 ± 0.4
nH ([5]; Table 3, n = 4): 3.2 ± 1.6
